Measurements taken from ChEMBL document CHEMBL3877335, “Bifunctional Inhibitors as a New Tool To Reduce Cancer Cell Invasion by Impairing MMP-9 Homodimerization” (ACS Med Chem Lett, 2017).
Calls of active or inactive are those of the source. No cut-off for these calls is given here.

Legend:
Interstitial collagenase = molecular target: T1, Interstitial collagenase (Homo sapiens, UniProt P03956); assay: Inhibition of p-aminophenylmercuric acetate activated human rheumatoid synovial fibroblast MMP-1 pretreated for 4 hrs followed by Mca-Lys-Pro-Leu-Gly-Leu-Dap(Dnp)-Ala-Arg-NH2 fluorogenic substrate addition measured every 15 secs for 20 mins by fluorimetric assay
T1 sequence (P03956 whole entry): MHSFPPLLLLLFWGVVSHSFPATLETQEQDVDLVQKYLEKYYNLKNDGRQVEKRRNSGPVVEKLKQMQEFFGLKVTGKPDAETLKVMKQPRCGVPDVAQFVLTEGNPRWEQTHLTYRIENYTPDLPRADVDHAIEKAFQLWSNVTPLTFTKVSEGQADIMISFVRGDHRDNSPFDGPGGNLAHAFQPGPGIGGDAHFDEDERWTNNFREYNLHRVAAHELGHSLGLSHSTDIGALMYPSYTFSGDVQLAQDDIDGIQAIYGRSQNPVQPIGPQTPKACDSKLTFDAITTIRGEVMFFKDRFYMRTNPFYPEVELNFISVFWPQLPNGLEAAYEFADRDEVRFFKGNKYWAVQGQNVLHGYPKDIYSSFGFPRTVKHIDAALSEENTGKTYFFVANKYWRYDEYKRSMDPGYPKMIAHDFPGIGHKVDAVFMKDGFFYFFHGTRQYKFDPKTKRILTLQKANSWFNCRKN

[1] = molecular target: T2, Matrix metalloproteinase-9 (Homo sapiens, UniProt P14780); assay: Inhibition of MMP-9 homodimerization in human T98G cells assessed as reduction in cell invasion at 5 to 25 nM measured after 24 hrs by p-formaldehyde/crystal violet staining based matrigel basement membrane transwell assay
[2] = molecular target: Matrix metalloproteinase-14 (Homo sapiens, UniProt P50281); assay: Inhibition of recombinant human MMP-14 catalytic domain pretreated for 4 hrs followed by Mca-Lys-Pro-Leu-Gly-Leu-Dap(Dnp)-Ala-Arg-NH2 fluorogenic substrate addition measured every 15 secs for 20 mins by fluorimetric assay
[3] = molecular target: T2, Matrix metalloproteinase-9; assay: Inhibition of p-aminophenylmercuric acetate activated recombinant human MMP-9 expressed in CHO cells pretreated for 4 hrs followed by Mca-Lys-Pro-Leu-Gly-Leu-Dap(Dnp)-Ala-Arg-NH2 fluorogenic substrate addition measured every 15 secs for 20 mins by fluorimetric assay; type: cell-based
[4] = Antiproliferative activity against human U87MG cells at 5 to 25 nM measured after 24 hrs by MTS assay; type: cell-based; details: u-87mg atcc, 0.025 µM
[5] = Antiproliferative activity against human U343MG cells at 5 to 25 nM measured after 24 hrs by MTS assay; type: cell-based; details: 0.025 µM
[6] = Antiproliferative activity against human T98G cells at 5 to 25 nM measured after 24 hrs by MTS assay; type: cell-based; details: 0.025 µM
[7] = molecular target: 72 kDa type IV collagenase (Homo sapiens, UniProt P08253); assay: Inhibition of p-aminophenylmercuric acetate activated recombinant human MMP-2 expressed in CHO cells pretreated for 4 hrs followed by Mca-Lys-Pro-Leu-Gly-Leu-Dap(Dnp)-Ala-Arg-NH2 fluorogenic substrate addition measured every 15 secs for 20 mins by fluorimetric assay; type: cell-based
[8] = molecular target: T2, Matrix metalloproteinase-9; assay: Inhibition of MMP-9 homodimerization in human U87MG cells assessed as reduction in cell invasion at 5 to 25 nM measured after 24 hrs by p-formaldehyde/crystal violet staining based matrigel basement membrane transwell assay; details: U-87MG ATCC
[9] = molecular target: T2, Matrix metalloproteinase-9; assay: Inhibition of MMP-9 homodimerization in human U343MG cells assessed as reduction in cell invasion at 25 nM measured after 24 hrs by p-formaldehyde/crystal violet staining based matrigel basement membrane transwell assay
[10] = molecular target: T2, Matrix metalloproteinase-9; details: U-87MG ATCC, 25 nM
Description: Inhibition of MMP-9 homodimerization in human U87MG cells assessed as reduction in cell invasion at 25 nM measured after 24 hrs by p-formaldehyde/crystal violet staining based matrigel basement membrane transwell assay

[11] = molecular target: T2, Matrix metalloproteinase-9; details: T98G, 25 nM
Description: Inhibition of MMP-9 homodimerization in human T98G cells assessed as reduction in cell invasion at 25 nM measured after 24 hrs by p-formaldehyde/crystal violet staining based matrigel basement membrane transwell assay

Homo sapiens = organism: Homo sapiens; assay: Selectivity ratio of IC50 for p-aminophenylmercuric acetate activated human rheumatoid synovial fibroblast MMP-1 to IC50 for p-aminophenylmercuric acetate activated recombinant human MMP-9

72 kDa type IV collagenase, sequence (P08253 whole entry): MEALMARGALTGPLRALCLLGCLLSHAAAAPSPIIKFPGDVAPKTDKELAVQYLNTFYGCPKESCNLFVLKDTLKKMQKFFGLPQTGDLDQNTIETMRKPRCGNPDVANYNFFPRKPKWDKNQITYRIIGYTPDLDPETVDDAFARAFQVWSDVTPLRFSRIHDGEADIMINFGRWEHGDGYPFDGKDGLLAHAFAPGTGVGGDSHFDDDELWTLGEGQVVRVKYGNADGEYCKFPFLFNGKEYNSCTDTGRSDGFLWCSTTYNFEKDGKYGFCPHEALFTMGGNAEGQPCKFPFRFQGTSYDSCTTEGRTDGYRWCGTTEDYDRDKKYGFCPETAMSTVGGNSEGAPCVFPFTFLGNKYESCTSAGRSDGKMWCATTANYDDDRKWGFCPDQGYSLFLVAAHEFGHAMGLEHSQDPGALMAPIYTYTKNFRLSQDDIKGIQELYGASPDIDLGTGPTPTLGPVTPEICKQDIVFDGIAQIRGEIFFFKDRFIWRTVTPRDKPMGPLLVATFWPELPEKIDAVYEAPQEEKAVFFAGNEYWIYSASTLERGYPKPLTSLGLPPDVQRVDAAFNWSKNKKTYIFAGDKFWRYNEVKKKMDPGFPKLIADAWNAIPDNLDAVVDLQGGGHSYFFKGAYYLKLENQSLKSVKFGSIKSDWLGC
T2 sequence (P14780 whole entry, the tested form may be a part): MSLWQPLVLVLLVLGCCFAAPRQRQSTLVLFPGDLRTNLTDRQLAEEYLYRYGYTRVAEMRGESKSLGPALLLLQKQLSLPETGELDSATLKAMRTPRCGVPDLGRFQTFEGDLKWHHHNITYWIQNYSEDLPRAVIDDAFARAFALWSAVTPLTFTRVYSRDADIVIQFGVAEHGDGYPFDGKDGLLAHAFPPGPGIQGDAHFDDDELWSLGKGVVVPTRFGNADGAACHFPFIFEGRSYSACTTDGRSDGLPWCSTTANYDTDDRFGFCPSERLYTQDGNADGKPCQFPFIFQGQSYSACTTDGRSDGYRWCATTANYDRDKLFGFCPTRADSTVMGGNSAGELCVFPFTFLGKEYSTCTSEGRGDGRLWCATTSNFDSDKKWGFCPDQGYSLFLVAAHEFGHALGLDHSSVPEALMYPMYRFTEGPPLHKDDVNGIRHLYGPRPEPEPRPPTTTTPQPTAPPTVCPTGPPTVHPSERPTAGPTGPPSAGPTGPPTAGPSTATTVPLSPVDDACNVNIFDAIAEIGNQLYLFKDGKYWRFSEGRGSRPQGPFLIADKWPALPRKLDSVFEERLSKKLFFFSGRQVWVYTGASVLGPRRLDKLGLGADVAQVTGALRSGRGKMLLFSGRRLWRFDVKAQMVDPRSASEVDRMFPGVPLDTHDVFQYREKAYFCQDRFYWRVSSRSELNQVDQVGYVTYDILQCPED

SMILES | IC50 (Interstitial collagenase) [nM] | inhibition [1] | IC50 [2] [nM] | IC50 [3] [nM] | Activity [4] | Activity [5] | Activity [6] | IC50 [7] [nM] | inhibition [8] | inhibition [9] | inhibition [10] | inhibition [11] | Ratio IC50 (Homo sapiens)
CC(C)[C@H](C(=O)O)N(CCNC(=O)c1ccccc1)S(=O)(=O)c1ccc(-c2ccccc2)cc1 | 16000 | Active | 1830 | 510 | Non-Toxic | Non-Toxic | Non-Toxic | 170 | Active | – | – | – | –
CC(C)[C@H](C(=O)NO)N(CCNC(=O)c1cccc(C(=O)NCCN([C@@H](C(=O)N(C)C)C(C)C)S(=O)(=O)c2ccc(-c3ccccc3)cc2)c1)S(=O)(=O)c1ccc(-c2ccccc2)cc1 | 1600 | – | 900 | 41 | – | – | – | 107 | – | – | – | – | –
CC(C)[C@H](C(=O)O)N(CCNC(=O)c1cccc(C(=O)NCCN([C@@H](C(=O)N(C)C)C(C)C)S(=O)(=O)c2ccc(-c3ccccc3)cc2)c1)S(=O)(=O)c1ccc(-c2ccccc2)cc1 | 2050 | – | 850 | 34 | – | – | – | 110 | – | – | – | – | –
CC(C)ON([C@H](CCNC(=O)CCCNC(=O)c1cccc(C(=O)NCCCC(=O)NCC[C@H](C(=O)NO)N(OC(C)C)S(=O)(=O)c2ccc(-c3ccccc3)cc2)c1)C(=O)NO)S(=O)(=O)c1ccc(-c2ccccc2)cc1 | 5200 | – | 116 | 38 | – | – | – | 20 | – | – | – | – | –
CC(C)[C@H](C(=O)NO)N(CCNC(=O)c1cccc(C(=O)NCCN([C@@H](C(=O)NO)C(C)C)S(=O)(=O)c2ccc(-c3ccccc3)cc2)c1)S(=O)(=O)c1ccc(-c2ccccc2)cc1 | 280 | Active | 250 | 5.5 | Non-Toxic | Non-Toxic | Non-Toxic | 10 | Active | Active | – | – | –
COc1ccc(S(=O)(=O)N(Cc2cccnc2)[C@@H](C(=O)NO)C(C)C)cc1 | – | – | – | – | – | – | – | – | – | Active | Active | Active | –
CC(C)[C@H](C(=O)NO)N(CCNC(=O)c1ccccc1)S(=O)(=O)c1ccc(-c2ccccc2)cc1 | 13 | Active | 23 | 2.5 | Non-Toxic | Non-Toxic | Non-Toxic | 0.16 | Active | – | – | – | –
CC(C)[C@H](C(=O)O)N(CCNC(=O)c1cccc(C(=O)NCCN([C@@H](C(=O)O)C(C)C)S(=O)(=O)c2ccc(-c3ccccc3)cc2)c1)S(=O)(=O)c1ccc(-c2ccccc2)cc1 | 11800 | Active | 2200 | 26 | Non-Toxic | Non-Toxic | Non-Toxic | 63 | Active | Active | – | – | 450
